Source: US20260224532A1, “ESTROGEN RECEPTOR BETA LIGANDS FOR THE PREVENTION AND TREATMENT OF MULTIPLE SCLEROSIS (MS) AND OTHER DEMYELINATING, INFLAMMATORY AND NEURODEGENERATIVE DISEASES” (The Board of Trustees of the University of Illinois, priority 2023, published 2026)

Tests used:
[1] = molecular target: T1, purified, full length human ERα (Homo sapiens, UniProt P03372); assay: Relative binding affinity (RBA) radiometric competitive binding assay, ERα; conditions: for RBA ERα: relative binding affinity, E2 (estradiol) is 100%, tritiated estradiol tracer; for binding affinity for ERα (in words): compared with the other 7-substituted indazoles
T1 construct: purified, full length human ERα and ERβ
T1 sequence (P03372 1-595): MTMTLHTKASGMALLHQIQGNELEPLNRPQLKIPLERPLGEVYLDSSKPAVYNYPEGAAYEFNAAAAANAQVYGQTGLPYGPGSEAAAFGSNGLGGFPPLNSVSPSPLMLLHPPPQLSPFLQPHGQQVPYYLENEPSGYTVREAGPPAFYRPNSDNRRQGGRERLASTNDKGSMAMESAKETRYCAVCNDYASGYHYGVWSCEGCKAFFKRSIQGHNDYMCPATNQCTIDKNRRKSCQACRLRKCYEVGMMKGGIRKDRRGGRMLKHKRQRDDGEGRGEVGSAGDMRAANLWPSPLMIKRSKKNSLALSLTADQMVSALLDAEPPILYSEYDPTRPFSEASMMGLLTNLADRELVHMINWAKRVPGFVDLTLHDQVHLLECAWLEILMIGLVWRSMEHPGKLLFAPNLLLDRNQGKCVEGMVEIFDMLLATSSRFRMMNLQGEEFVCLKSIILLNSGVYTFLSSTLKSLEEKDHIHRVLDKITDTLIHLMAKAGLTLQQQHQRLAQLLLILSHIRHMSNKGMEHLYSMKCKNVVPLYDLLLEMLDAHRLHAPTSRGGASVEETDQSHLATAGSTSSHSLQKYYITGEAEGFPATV

[2] = molecular target: T2, purified, full length human ERβ (Homo sapiens, UniProt Q92731); assay: Relative binding affinity (RBA) radiometric competitive binding assay, ERβ; conditions: for β/α (ERβ/ERα selectivity): ratio of RBA ERβ to RBA ERα; for RBA ERβ: relative binding affinity, E2 (estradiol) is 100%, tritiated estradiol tracer; for selectivity of binding to ERβ vs ERα: text statement of the β/α ratio; for binding affinity for ERβ (in words): compared with the other 7-substituted indazoles
T2 construct: purified, full length human ERα and ERβ
T2 sequence (Q92731 whole entry): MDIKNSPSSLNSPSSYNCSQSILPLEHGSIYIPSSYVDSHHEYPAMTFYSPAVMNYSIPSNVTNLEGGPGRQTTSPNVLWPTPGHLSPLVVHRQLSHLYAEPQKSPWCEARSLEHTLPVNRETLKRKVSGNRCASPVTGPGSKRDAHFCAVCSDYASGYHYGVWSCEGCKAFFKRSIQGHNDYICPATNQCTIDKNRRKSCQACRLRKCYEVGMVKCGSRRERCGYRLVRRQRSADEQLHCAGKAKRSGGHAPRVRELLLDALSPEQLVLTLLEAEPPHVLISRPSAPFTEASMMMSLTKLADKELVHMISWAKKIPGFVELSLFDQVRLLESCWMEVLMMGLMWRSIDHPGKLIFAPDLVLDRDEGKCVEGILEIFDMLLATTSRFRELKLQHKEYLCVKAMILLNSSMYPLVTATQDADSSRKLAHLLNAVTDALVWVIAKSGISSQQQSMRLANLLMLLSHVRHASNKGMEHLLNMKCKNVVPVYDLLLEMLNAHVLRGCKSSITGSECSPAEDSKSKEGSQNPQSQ

Primary OPCs = assay: Primary OPC culture: MBP+ OL differentiation and total cell count (DAPI); assay type: cell-based, mouse; conditions: for number of MBP+ OLs with increased percentage of branched OLs, compared to vehicle-treated cells / total number of cells (DAPI): 10 nM
Method: Primary OPC Cultures: Primary OPCs, isolated from postnatal day P1 C57BL/6 male and female mouse cortices as described previously, are treated with 10 nM ligands in differentiating medium for […] (Tiwari-Woodruff et al., 2001; Tiwari-Woodruff et al., 2006). Primary OPC are cultured into 8-well chamber slides (three wells per condition, 2.5×10^5 cells/well) for three days to attach and five days in differentiating media (consisting of DMEM-F12 with triiodothyronine- and thyroxine-containing Sato as well as penicillin, streptomycin, insulin, N-acetyl-L-cysteine, forskolin, ciliary neurotrophic factor, neurotrophin-3, and platelet-derived growth factor […] (Tiwari-Woodruff et al., 2001)). A positive control (IndC1), a negative control (Vehicle consisting of the media+EtOH mixture used to dissolve IndCl), and a normal control (differentiating media alone) are used for comparison. At the end of the treatment period, cells are fixed, stained by immunocytochemistry (primary antibody polyclonal chicken myelin basic protein (MBP, Millipore AB9348), and co-stained with nuclear stain-DAPI), and imaged with an Olympus BX61 confocal microscope (Olympus America Inc., Center Valley, PA) at 10× magnification (3 images per well). Cells are counted using the ImageJ multipoint tool, and counts are then divided by the image area (mm^2). Average cell density for each condition is then divided by the normal condition cell density. Analysis of OL differentiation consists of counting the number of MBP+ cells and process extensions that are longer than the respective cell-body diameter and tracking the number of highly branched MBP+ cells (with three or more processes) (Monnerie et al., 2017). Statistics are performed using GraphPad Prism 6 Software (La Jolla, CA). One-way ANOVA with Tukey's posthoc test for multiple comparisons is used to generate p-values, and data are presented as mean±SEM (with α≤0.05).
FIG. 1A-1D show the effects of treatment with the 7-substituted indazole compounds on the expression of myelin basic protein in OLs (MBP^+-OLs, top two panels) as an indication of murine oligodendrocyte precursor cell (OPC) differentiation, as well as the count of the total cells as an indication of cell proliferation/survival (DAPI nucleus stain, bottom two panels). The cells were treated with the listed compounds at 10 nM (FIG. 1A, 1B) and at 1 nM (FIG. 1C, 1D).

[3] = tested on: Cuprizone-Induced Demyelinated Mouse Model; assay: Myelin recovery in the cuprizone-induced demyelinated mouse model (MOG IHC, Corpus Callosum); assay type: in vivo, C57BL/6 female mice; conditions: SC 5 mg/kg, 1.5-weeks treatment after 6 weeks cuprizone
Method: The Cuprizone assay of demyelination-remyelination was conducted by the methods described previously (Moore et al. 2013; Crawford et al, 2009a,b). A group of animals was on normal diet (N groups). The remainder of the mice were divided into groups of 5 and all of these groups of mice were fed cuprizone diet at (0.2% cuprizone mixed in chow). After 6 weeks on cuprizone diet-induced demyelination, a group of 5 mice were perfused (DM group). The other groups of mice were switched to normal diet for 1.5 weeks to initiate remyelination and were treated with either (i) Vehicle (SC+V) or (ii) test compound at a dose of 5 mg/kg. […] After 1.5 weeks of normal diet-induced remyelination, the mice were perfused. Brains were collected, cryoprotected, embedded, cut, and IHC for myelin oligodendrocyte glycoproteins (MOG) was performed. Cuprizone study results after 1.5-weeks treatment with the designated 7-substituted compounds via SC administration following 6 weeks cuprizone treatment of (C57BL/6) female mice are shown in FIG. 5. The height of each bar graph represents level of myelination assessed by the expression of MOG in the white matter tracks of the Corpus Callosum area quantified by immunohistochemical analysis (IHC) after staining with a MOG antibody. N: Normal diet, DM: Demyelinated status after 6 weeks cuprizone treatment, SC-Veh: Spontaneous remyelination after injection with matrix in saline solution only (without compound; recovery is only about 40%). (Mice: ~2 months age, SC: Subcutaneous injection, n=5). Cuprizone study results for the 3-weeks treatment with the 6-substituted compound 17 via SC administration following the 6 weeks of 0.2% cuprizone treatment of C57BL/6 female mice are shown in FIG. 6. The height of each bar graph represents level of myelination assessed by the expression of MOG in the white matter tracks of the Corpus Callosum area quantified by immunohistochemical analysis (IHC) after staining with a MOG antibody. N: Normal diet, DM: Demyelinated status after 6 weeks cuprizone treatment, SC-Veh: Spontaneous remyelination after injection with matrix in saline solution only (without compound; recovery is only about 40%). (Mice: ~2 months age, SC: Subcutaneous injection, n=5~6). […] (Mice: ~2 months age, s.c.: Subcutaneous administration, n=5).

SMILES | RBA ERα [1] [%] | β/α (ERβ/ERα selectivity) [2] | RBA ERβ [2] [%] | selectivity of binding to ERβ vs ERα [2] [fold] | number of MBP+ OLs with increased percentage of branched OLs, compared to vehicle-treated cells (Primary OPCs) | total number of cells (DAPI) (Primary OPCs) | remyelination (MOG expression in Corpus Callosum) [3] | MBP expression / number of MBP+ OLs, compared to vehicle-treated cells (Primary OPCs; 1 nM) | binding affinity for ERα (in words) [1] | binding affinity for ERβ (in words) [2]
Oc1ccc(-n2cc3cc(O)cc(Br)c3n2)cc1 [Compound 1, 7-bromo-2-(4-hydroxyphenyl)-2H-indazol-5-ol] | 0.244 | 131 | 32.01 ± 0.09 | 131 | significant increase |  |  |  |  | 
Oc1ccc(-n2nc3c(Br)cc(O)cc3c2F)cc1 [Compound 2, 7-bromo-3-fluoro-2-(4-hydroxyphenyl)-2H-indazol-5-ol] | 2.27 | 70.1 |  |  |  | reduction |  |  |  | 
Oc1ccc(-n2nc3c(Br)cc(O)cc3c2Cl)cc1 [Compound 3, 7-bromo-3-chloro-2-(4-hydroxyphenyl)-2H-indazol-5-ol] | 15.57 | 18 |  |  |  | reduction |  |  |  | 
Oc1ccc(-n2nc3c(Br)cc(O)cc3c2Br)cc1 [Compound 4, 3,7-dibromo-2-(4-hydroxyphenyl)-2H-indazol-5-ol] | 21.29 | 7 |  |  |  |  |  |  |  | 
Oc1ccc(-n2cc3cc(O)cc(Cl)c3n2)cc1 [Compound 6, 7-chloro-2-(4-hydroxyphenyl)-2H-indazol-5-ol] | 0.098 | 200 | 19.6 ± 6.1 | 200 |  |  |  |  |  | 
Oc1ccc(-n2cc3cc(O)cc(F)c3n2)cc1 [Compound 8, 7-fluoro-2-(4-hydroxyphenyl)-2H-indazol-5-ol] | 0.258 | 87 | 22.4 |  |  |  |  |  |  | 
Oc1ccc(-n2nc3c(F)cc(O)cc3c2Cl)cc1 [Compound 9, 3-Chloro-7-fluoro-2-(4-hydroxyphenyl)-2H-indazol-5-ol] | 2.2 | 37 | 82.3 |  |  |  |  |  |  | 
Cc1cc(O)cc2cn(-c3ccc(O)cc3)nc12 [Compound 10, 7-methyl-2-(4-hydroxyphenyl)-2H-indazol-5-ol] | 0.018 | 144 | 2.59 | 144 |  |  |  |  |  | 
Cc1cc(O)cc2c(Cl)n(-c3ccc(O)cc3)nc12 [Compound 11, 3-Chloro-7-methyl-2-(4-hydroxyphenyl)-2H-indazol-5-ol] | 2.76 | 17 | 45.9 |  |  |  |  |  |  | 
Oc1cccc(-n2nc3c(Br)cc(O)cc3c2Cl)c1 [Compound 12, 7-Bromo-3-chloro-2-(3-hydroxyphenyl)-2H-indazol-5-ol] | 0.16 | 246 | 39.4 | 246 |  |  | does not accelerate remyelination |  |  | 
Oc1cc(Cl)c2nn(-c3ccc(O)c(F)c3)cc2c1 [Compound 13, 7-Chloro-2-(3-fluoro-4-hydroxyphenyl)-2H-indazol-5-ol] | 0.023 | 469 | 10.76 | 469 |  |  |  |  |  | 
Oc1cc(Cl)c2nn(-c3ccc(O)c(F)c3)c(Cl)c2c1 [Compound 14, 3,7-dichloro-2-(3-fluoro-4-hydroxyphenyl)-2H-indazol-5-ol] | 0.86 | 38.3 | 32.96 |  | significant increase |  | somewhat less remyelination |  |  | 
Oc1ccc(-n2cc3cc(O)cc(Cl)c3n2)c(F)c1 [Compound 15, 7-chloro-2-(2-fluoro-4-hydroxyphenyl)-2H-indazol-5-ol] | 0.052 | 185 | 9.63 | 185 |  |  |  |  |  | 
Oc1ccc(-n2nc3c(Cl)cc(O)cc3c2Cl)c(F)c1 [Compound 16, 3,7-dichloro-2-(2-fluoro-4-hydroxyphenyl)-2H-indazol-5-ol] | 4.71 | 6.74 | 31.76 |  |  |  |  |  |  | 
Cc1cc(O)ccc1-n1nc2cc(F)c(O)cc2c1Cl [Compound 18, 3-Chloro-6-fluoro-2-(4-hydroxy-2-methylphenyl)-2H-indazol-5-ol] | 0.545 | 4.64 | 2.53 |  | significant increase |  |  | significant increase |  | 
Oc1ccc(-n2nc3cc(Cl)c(O)cc3c2Cl)cc1 [Compound 19, 3,6-dichloro-2-(4-hydroxyphenyl)-2H-indazol-5-ol] | 0.055 | 15.49 | 0.852 |  |  |  |  |  |  | 
Cc1cc(O)ccc1-n1nc2cc(Cl)c(O)cc2c1Cl [Compound 20, 3,6-dichloro-2-(4-hydroxy-2-methylphenyl)-2H-indazol-5-ol] | 0.071 | 2.63 | 0.187 |  |  |  |  |  |  | 
Oc1ccc(-n2nc3c(O)cc(O)cc3c2Cl)cc1 [Compound 21, 3-chloro-2-(4-hydroxyphenyl)-2H-indazole-5,7-diol] | 0.001 | 51 | 0.051 |  |  |  |  |  | lower binding affinity | lower binding affinity
Cc1cc(O)ccc1-n1nc2c(O)cc(O)cc2c1Cl [Compound 22, 3-chloro-2-(4-hydroxy-2-methylphenyl)-2H-indazole-5,7-diol] | 0.0005 | 12 | 0.006 |  |  |  |  |  | lower binding affinity | lower binding affinity
